From paper PMC12467033, “Exploring the Inhibitory Potential of Six Porphyrin Compounds Against α-Amylase and α-Glucosidase Linked to Diabetes” (Biomolecules, 2025)

Columns and labels:
α-glucosidase [1] = molecular target: T1, α-glucosidase (Saccharomyces cerevisiae, UniProt P53341); assay: FTIR secondary structure analysis of α-GLU complexes; conditions: enzyme–porphyrin molar ratio 1:2, amide I band
Text: (§1) A molar ratio of 1:2 (α-amylase/α-glucosidase)–porphyrin solution was placed in a cryocentrifugal concentrator and the dried solid sample was mixed with dry KBr and measured using a Nicolet IS-50 FTIR Spectrometer (ThermoFisher, Waltham, MA, USA) with a scanning range of 4000–400 cm^−1 and a resolution of 4 cm^−1. The overlapping peaks in the amide I band (1700–1600 cm^−1) were further analyzed into multiple feature sub-peaks, and quantitative analysis of the relative content of various secondary structures in proteins using curve fitting methods was performed.

α-amylase [2] = molecular target: T2, α-amylase (Sus scrofa, UniProt P00690); assay: FTIR secondary structure analysis of α-AMY complexes; conditions: enzyme–porphyrin molar ratio 1:2, amide I band
T2 sequence (P00690 16-511): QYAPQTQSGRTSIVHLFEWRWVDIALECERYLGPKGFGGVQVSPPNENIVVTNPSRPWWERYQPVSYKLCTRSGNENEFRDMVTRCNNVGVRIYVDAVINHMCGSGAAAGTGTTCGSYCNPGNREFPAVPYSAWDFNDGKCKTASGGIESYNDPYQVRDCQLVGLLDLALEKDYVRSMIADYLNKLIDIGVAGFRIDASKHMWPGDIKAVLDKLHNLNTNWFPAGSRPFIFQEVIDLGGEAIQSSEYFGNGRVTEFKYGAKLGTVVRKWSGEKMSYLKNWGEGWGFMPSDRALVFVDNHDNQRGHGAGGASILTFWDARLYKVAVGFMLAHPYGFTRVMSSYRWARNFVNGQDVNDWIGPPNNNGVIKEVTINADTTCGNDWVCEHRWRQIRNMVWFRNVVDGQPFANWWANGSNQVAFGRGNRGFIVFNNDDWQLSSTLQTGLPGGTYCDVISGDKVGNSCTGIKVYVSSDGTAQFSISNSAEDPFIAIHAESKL
Text: as §1

α-amylase [3] = molecular target: T2, α-amylase; assay: Mode of α-AMY inhibition (reversibility, Lineweaver–Burk kinetics); assay type: biochemical
Text: In the experiment, the concentration of the fixed substrate Gal-G2-α-CNP/pNPG solution was 5 mmol/L, and the concentrations of the two enzymes (100, 200, 300, 400 U/L) were used to determine the effect of different concentrations of porphyrins on enzyme activity. The concentration of the enzyme was 200 U/L, and the concentration of the substrate Gal-G2-α-CNP/pNPG solution (2.5, 5, 7.5, 10 mmol/L) was used to determine the effect of different concentrations of porphyrins on the enzyme-catalyzed substrate activity.
Upon identifying the type of inhibition, the kinetic equations vary for different inhibition types.
In the formula, v, Vmax, Km, Ki, and Kis represent the reaction rate, maximum reaction rate, Michaelis constant, and free enzyme inhibition constant, respectively, and the binding enzyme inhibition constant. [S] denotes the substrate concentration. [I] denotes the inhibitor concentration.

α-glucosidase [4] = molecular target: T1, α-glucosidase; assay: Fluorescence quenching, binding and thermodynamics with α-glucosidase
Method: In the α-amylase experiment, a series of porphyrins and amylase (200 U/L) were mixed in a volume ratio of 1:1. In the α-glucosidase experiment, the glucosidase concentration was 400 U/L, mixed in a volume ratio of 1:1; the samples were maintained at three different temperatures (298, 304, and 310 K) for 30 min, with excitation at 280 nm and emission scanning from 300 to 500 nm.
(§2) The Stern–Volmer equation [35] was adopted to determine the quenching mechanisms between six porphyrin compounds and both enzymes in the experimental group, with Formula (6):(6) F0/F=1+Ksv[Q]=1+Kqτ0[Q]
(§3) The Stern–Volmer equation was adapted based on experimental data to more accurately characterize the quenching behavior [36], with Formula (7):(7) F0/F=e^Ksv[Q]=e^Kqτ0[Q]
(§4) In the formula, the fluorescence quenching ratio was calculated as F0/F, where F0 corresponds to the emission intensity of pure α-amylase solution (control) and F denotes the intensity measured after the incremental addition of porphyrin ligands. KSV and Kq denote the Stern–Volmer quenching constant and the bimolecular quenching rate constant, respectively, τ0 (10^−8 s) is the average fluorescence lifetime of the fluorophore in the absence of quencher, and [Q] indicates the concentration of porphyrin compounds.
(§5) Due to the presence of an internal filtration effect, a decrease in the fluorescence intensity of the system may occur. Therefore, all fluorescence data were corrected using Formula (8) to eliminate the internal filtration effect.(8) Fcor=Fobse^(Aex+Aem)/2
(§6) The evaluation of the interaction forces between porphyrin compounds and the two enzymes can be achieved by calculating thermodynamic parameters. When both ΔH^0 and ΔS^0 are positive, the predominant interaction force is hydrophobic. When both ΔH^0 and ΔS^0 are negative, the main forces are hydrogen bonding and van der Waals forces. When ΔH^0 < 0 and ΔS^0 > 0, the primary interaction is electrostatic attraction.
(§7) The thermodynamic parameters were calculated using Formulas (9) and (10), and then the Van’t Hoff plot for the interactions between the porphyrin compounds and the two enzymes was generated by plotting lnKa on the Y-axis versus 1/T on the X-axis.(9) lnKa=−ΔH^0/RT+ΔS^0/R (10) ΔG^0=ΔH^0−TΔS^0=−RTlnKa

α-amylase [5] = molecular target: T2, α-amylase; assay: Fluorescence quenching, binding and thermodynamics with α-amylase
Text: In the α-amylase experiment, a series of porphyrins and amylase (200 U/L) were mixed in a volume ratio of 1:1.
as §2, §3, §4, §5, §6, §7

T1 sequence (P53341 whole entry): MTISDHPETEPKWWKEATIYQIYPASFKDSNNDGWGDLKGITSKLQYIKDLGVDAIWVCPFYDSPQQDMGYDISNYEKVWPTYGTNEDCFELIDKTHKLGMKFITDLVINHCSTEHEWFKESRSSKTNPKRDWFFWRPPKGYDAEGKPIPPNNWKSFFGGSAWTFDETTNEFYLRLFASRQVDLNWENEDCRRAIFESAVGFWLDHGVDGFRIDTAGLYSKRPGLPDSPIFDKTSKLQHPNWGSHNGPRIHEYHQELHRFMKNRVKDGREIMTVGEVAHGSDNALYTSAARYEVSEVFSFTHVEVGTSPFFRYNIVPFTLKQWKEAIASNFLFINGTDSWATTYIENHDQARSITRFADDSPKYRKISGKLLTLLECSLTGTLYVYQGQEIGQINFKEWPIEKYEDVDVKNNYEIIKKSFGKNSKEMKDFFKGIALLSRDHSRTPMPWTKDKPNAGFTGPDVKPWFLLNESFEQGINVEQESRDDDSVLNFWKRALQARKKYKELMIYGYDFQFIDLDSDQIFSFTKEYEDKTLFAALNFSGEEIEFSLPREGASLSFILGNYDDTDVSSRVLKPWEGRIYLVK

SMILES: O=C(O)c1ccc(-c2c3nc(c(-c4ccc(C(=O)O)cc4)c4ccc([nH]4)c(-c4ccc(C(=O)O)cc4)c4nc(c(-c5ccc(C(=O)O)cc5)c5ccc2[nH]5)C=C4)C=C3)cc1.[Cu+2] [Cu–TCPP, copper (II) meso-tetra (4-carboxyphenyl)porphyrin]
- Random Coil (α-glucosidase [1]): 25.05 ± 0.07%
- α-Helix (α-glucosidase [1]): 23.65 ± 0.03%
- β-Antiparallel (α-glucosidase [1]): 2.59 ± 0.01%
- β-Sheet (α-glucosidase [1]): 10.93 ± 0.05%
- β-Turn (α-glucosidase [1]): 37.78 ± 0.09%
- Random Coil (α-amylase [2]): 20.94 ± 0.06%
- α-Helix (α-amylase [2]): 20.76 ± 0.05%
- β-Antiparallel (α-amylase [2]): 12.17 ± 0.02%
- β-Sheet (α-amylase [2]): 10.94 ± 0.01%
- β-Turn (α-amylase [2]): 35.19 ± 0.06%
- Km (α-amylase [3]; C 25 μg/mL): 2.8021 ± 0.0410 µg/mL
- Vmax (α-amylase [3]; C 25 μg/mL): 0.1101 ± 0.0016 ΔOD/min
- Km (α-amylase [3]; C 50 μg/mL): 3.1685 ± 0.0729 µg/mL
- Vmax (α-amylase [3]; C 50 μg/mL): 0.1050 ± 0.0024 ΔOD/min
- Km (α-amylase [3]; C 100 μg/mL): 3.5949 ± 0.0569 µg/mL
- Vmax (α-amylase [3]; C 100 μg/mL): 0.0923 ± 0.0015 ΔOD/min
- Km (α-amylase [3]; C 150 μg/mL): 3.9016 ± 0.1355 µg/mL
- Vmax (α-amylase [3]; C 150 μg/mL): 0.0860 ± 0.0031 ΔOD/min
- Km (α-amylase [3]; C 200 μg/mL): 4.2470 ± 0.0673 µg/mL
- Vmax (α-amylase [3]; C 200 μg/mL): 0.0785 ± 0.0012 ΔOD/min
- type of inhibition of α-amylase (α-amylase [3]; Lineweaver–Burk plots): mixed type
- reversibility of inhibition of α-amylase (α-amylase [3]; enzyme 100–400 U/L, substrate 5 mmol/L): reversible inhibition
- Kis (α-amylase [3]; enzyme–substrate complex inhibition constant): 420.9420 ± 0.2189 µg/mL
- Ki (α-amylase [3]; free enzyme inhibition constant): 135.8043 ± 0.1608 µg/mL
- binding constants K (α-glucosidase [4]; 310 K): (0.69 ± 0.01) × 10^5 L·mol^−1
- quenching mechanism of α-glucosidase fluorescence (α-glucosidase [4]; Stern–Volmer plots, 298–310 K): static quenching
- Ka (binding constant) (α-glucosidase [4]; T 298 K): 55.21 ± 0.11 ×10^5 L/mol
- Kq (α-glucosidase [4]; T 298 K): 7.35 ± 0.09 ×10^12 L/mol/s
- Ksv (α-glucosidase [4]; T 298 K): 7.35 ± 0.09 ×10^4 L/mol
- n (number of binding sites) (α-glucosidase [4]; T 298 K): 1.44
- ΔG^0 (α-glucosidase [4]; T 298 K): -38.46 ± 0.08 kJ/mol
- Ka (binding constant) (α-glucosidase [4]; T 304 K): 7.38 ± 0.04 ×10^5 L/mol
- Kq (α-glucosidase [4]; T 304 K): 6.74 ± 0.03 ×10^12 L/mol/s
- Ksv (α-glucosidase [4]; T 304 K): 6.74 ± 0.03 ×10^4 L/mol
- n (number of binding sites) (α-glucosidase [4]; T 304 K): 1.25
- ΔG^0 (α-glucosidase [4]; T 304 K): -34.15 ± 0.05 kJ/mol
- Ka (binding constant) (α-glucosidase [4]; T 310 K): 0.69 ± 0.01 ×10^5 L/mol
- Kq (α-glucosidase [4]; T 310 K): 5.05 ± 0.02 ×10^12 L/mol/s
- Ksv (α-glucosidase [4]; T 310 K): 5.05 ± 0.02 ×10^4 L/mol
- n (number of binding sites) (α-glucosidase [4]; T 310 K): 1.03
- ΔG^0 (α-glucosidase [4]; T 310 K): -28.70 ± 0.04 kJ/mol
- ΔH^0 (α-glucosidase [4]; Van’t Hoff, 298–310 K): -280.76 ± 0.13 kJ/mol
- ΔS^0 (α-glucosidase [4]; Van’t Hoff, 298–310 K): −812.45 ± 0.17 J/mol/k
- Ka (α-amylase [5]; 298–310 K): 10^3–10^4 L/mol
- quenching mechanism of α-amylase fluorescence (α-amylase [5]; Stern–Volmer plots, 298–310 K): pure static quenching
- Ka (binding constant) (α-amylase [5]; T 298 K): 0.20 ± 0.01 ×10^5 L/mol
- Kq (α-amylase [5]; T 298 K): 4.37 ± 0.07 ×10^12 L/mol/s
- Ksv (α-amylase [5]; T 298 K): 4.37 ± 0.07 ×10^4 L/mol
- n (number of binding sites) (α-amylase [5]; T 298 K): 0.93
- ΔG^0 (α-amylase [5]; T 298 K): -24.55 ± 0.05 kJ/mol
- Ka (binding constant) (α-amylase [5]; T 304 K): 0.10 ± 0.01 ×10^5 L/mol
- Kq (α-amylase [5]; T 304 K): 4.33 ± 0.03 ×10^12 L/mol/s
- Ksv (α-amylase [5]; T 304 K): 4.33 ± 0.03 ×10^4 L/mol
- n (number of binding sites) (α-amylase [5]; T 304 K): 0.84
- ΔG^0 (α-amylase [5]; T 304 K): -23.29 ± 0.03 kJ/mol
- Ka (binding constant) (α-amylase [5]; T 310 K): 0.06 ± 0.01 ×10^5 L/mol
- Kq (α-amylase [5]; T 310 K): 4.32 ± 0.02 ×10^12 L/mol/s
- Ksv (α-amylase [5]; T 310 K): 4.32 ± 0.02 ×10^4 L/mol
- n (number of binding sites) (α-amylase [5]; T 310 K): 0.78
- ΔG^0 (α-amylase [5]; T 310 K): -22.33 ± 0.05 kJ/mol
- ΔH^0 (α-amylase [5]; Van’t Hoff, 298–310 K): -79.68 ± 0.07 kJ/mol
- ΔS^0 (α-amylase [5]; Van’t Hoff, 298–310 K): −185.16 ± 0.05 J/mol/k
